For this assay, the target named is T1, IDO1 (Homo sapiens, UniProt P14902).
T1 construct: HeLa cells were treated with a test compound in the presence of IFNγ, which induces IDO1 expression; endogenous in cells; host or cells: H1-HeLa cells (ATCC #CRL-1958), induced with IFNγ
T1 sequence (P14902 whole entry): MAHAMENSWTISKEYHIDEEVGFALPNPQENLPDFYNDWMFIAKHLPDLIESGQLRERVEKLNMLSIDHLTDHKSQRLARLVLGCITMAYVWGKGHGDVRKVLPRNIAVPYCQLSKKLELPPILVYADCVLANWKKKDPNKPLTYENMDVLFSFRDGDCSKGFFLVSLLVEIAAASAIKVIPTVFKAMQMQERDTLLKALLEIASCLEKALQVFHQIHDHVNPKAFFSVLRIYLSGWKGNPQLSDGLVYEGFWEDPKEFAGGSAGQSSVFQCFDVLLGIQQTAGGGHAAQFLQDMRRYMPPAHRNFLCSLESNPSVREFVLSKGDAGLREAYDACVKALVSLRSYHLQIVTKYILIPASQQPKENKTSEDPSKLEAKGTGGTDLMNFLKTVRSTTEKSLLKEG
The assay is described as follows: Cell-based (HeLa) assay for measurement of IDO1 inhibition (kynurenine levels in supernatant after IFNγ induction). The note with it: H1-HeLa cells, IFNγ-induced IDO1, 48 hour incubation, kynurenine absorbance at 480 nm; geometric mean of a minimum of four determinations. Summed up:
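HeLa cells (1,250/well, DMEM/10% FBS) exposed to compound (0.5% DMSO) with IFNγ (added as 50 ng/mL solution) for 48 h. Supernatant kynurenine measured after TCA treatment (60 °C, 30 min) with p-dimethylaminobenzaldehyde, A480. EC50 from four-parameter fit normalised to ±IFNγ controls; geometric mean of ≥4 runs.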
The compound `Cc1ncc(-c2cccn3c(C4CC4)ncc23)cc1C(=O)Nc1ccc(F)cc1` [Example 90, 5-(3-cyclopropylimidazo[1,5-a]pyridin-8-yl)-N-(4-fluorophenyl)-2-methylnicotinamide] displayed an EC50 of 2940 nM.
The compound `Cc1ncc(-c2cccn3c(C4CCC4)ncc23)cc1C(=O)Nc1ccc(F)cc1` [Example 91, 5-(3-cyclobutylimidazo[1,5-a]pyridin-8-yl)-N-(4-fluorophenyl)-2-methylnicotinamide] showed an EC50 of 888 nM.
Compound `Cc1ncc(-c2cccn3c(-c4cccc(F)c4F)nc(Br)c23)cc1C(=O)Nc1ccc(F)cc1` [Example 92, 5-(1-bromo-3-(2,3-difluorophenyl)imidazo[1,5-a]pyridin-8-yl)-N-(4-fluorophenyl)-2-methylnicotinamide] returned an EC50 of 273 nM. This EC50 is about 3.3-fold lower than that of the compound before.
Compound `Cc1ncc(-c2cccn3c(C4CCCCC4)ncc23)cc1C(=O)Nc1ccc(F)cc1` [Example 93, 5-(3-cyclohexylimidazo[1,5-a]pyridin-8-yl)-N-(4-fluorophenyl)-2-methylnicotinamide] came in with a half-maximal effective concentration (EC50) of 250 nM.
`O=C(Nc1ccc(F)cc1)c1cc(-c2cccn3c(-c4cccc(F)c4F)ncc23)cnc1N1CCC1` [Example 94, 2-(azetidin-1-yl)-5-(3-(2,3-difluorophenyl)imidazo[1,5-a]pyridin-8-yl)-N-(4-fluorophenyl)nicotinamide] yielded a 50% effective concentration (EC50) of 124 nM. This EC50 is about 2-fold lower than that of the compound before.
`Fc1ccc2[nH]c(-c3cc(-c4cccn5c(-c6cccc(F)c6F)ncc45)ccc3C(F)(F)F)nc2c1` [Example 95, 2-(5-(3-(2,3-difluorophenyl)imidazo[1,5-a]pyridin-8-yl)-2-(trifluoromethyl)phenyl)-5-fluoro-1H-benzo[d]imidazole] displayed an EC50 of 24.3 nM.
The compound `Fc1ccc2[nH]c(-c3cc(-c4cccn5c(-c6cccc(F)c6F)ncc45)ccc3Cl)nc2c1` [Example 96, 2-(2-chloro-5-(3-(2,3-difluorophenyl)imidazo[1,5-a]pyridin-8-yl)phenyl)-5-fluoro-1H-benzo[d]imidazole] came in with an EC50 of 67.2 nM.
In turn, `Cc1ncc(-c2cccn3c(-c4cccc(F)c4F)ncc23)cc1-c1nc2cc(F)ccc2[nH]1` [Example 97, 2-(5-(3-(2,3-difluorophenyl)imidazo[1,5-a]pyridin-8-yl)-2-methylpyridin-3-yl)-5-fluoro-1H-benzo[d]imidazole] gave a 50% effective concentration (EC50) of 64.9 nM.
In the case of `Fc1ccc2[nH]c(-c3cc(-c4cccn5c(-c6cccc(F)c6F)ncc45)cnc3C(F)(F)F)nc2c1` [Example 98, 2-(5-(3-(2,3-difluorophenyl)imidazo[1,5-a]pyridin-8-yl)-2-(trifluoromethyl)pyridin-3-yl)-5-fluoro-1H-benzo[d]imidazole], the response was half-maximal at 36.6 nM (EC50).
For `Cc1ncc(-c2cccn3c(-c4cccc(F)c4F)ncc23)cc1-c1nc2ccccc2[nH]1` [Example 99, 2-(5-(3-(2,3-difluorophenyl)imidazo[1,5-a]pyridin-8-yl)-2-methylpyridin-3-yl)-1H-benzo[d]imidazole], the EC50 came to 59.9 nM. This EC50 lies about 1.6-fold higher than the previous one.

The term EC50 denotes the concentration needed to bring the measured effect to its halfway point. A lower EC50 goes with a more potent agent.

Values taken from patent US11040033B2 (Gilead Sciences, Inc., priority 2017, dated 2021).
